Test results taken from patent US20150105252A1, “SUBSTITUTED PYRAZOLES AS HERBICIDES” (E I DU PONT DE NEMOURS AND COMPANY, priority 2013, published 2015).

Experiments:
chamomile = assay: Test D preemergence; type: in vivo, Matricaria inodora; conditions: scale 0 to 100
Excerpt: Seeds of plant species selected from bluegrass (annual bluegrass, Poa annua), blackgrass (Alopecurus myosuroides), canarygrass (littleseed canarygrass, Phalaris minor), chickweed (common chickweed, Stellaria media), galium (catchweed bedstraw, Galium aparine), bromegrass, downy (downy bromegrass, Bromus tectorum), field poppy (Papaver rhoeas), field violet (Viola arvensis), foxtail, green (green foxtail, Setaria viridis), deadnettle (henbit deadnettle, Lamium amplexicaule), ryegrass, Italian (Italian ryegrass, Lolium multiflorum), kochia (Kochia scoparia), lambsquarters (Chenopodium album), oilseed rape (Brassica napus), pigweed (redroot pigweed, Amaranthus retroflexus), chamomile (scentless chamomile, Matricaria inodora), speedwell (bird's-eye speedwell, Veronica persica), barley, spring (spring barley, Hordeum vulgare), wheat, spring (spring wheat, Triticum aestivum), buckwheat, wild (wild buckwheat, Polygonum convolvulus), mustard, wild (wild mustard, Sinapis arvensis), oat, wild (wild oat, Avena fatua), radish, wild (wild radish, Raphanus raphanistrum), windgrass (Apera spica-venti), Russian thistle (Salsola kali), barley, winter (winter barley, Hordeum vulgare), and wheat, winter (winter wheat, Triticum aestivum) were planted into a silt loam soil and treated preemergence with test chemicals formulated in a non-phytotoxic solvent mixture which included a surfactant.
At the same time, these species were planted in pots containing Redi-Earth® planting medium (Scotts Company, 14111 Scottslawn Road, Marysville, Ohio 43041) comprising spaghnum peat moss, vermiculite, wetting agent and starter nutrients and treated with postemergence applications of the test chemicals formulated in the same manner. Plants ranged in height from 2 to 18 cm (1- to 4-leaf stage). Treated plants and controls were maintained in a controlled growth environment for 14 to 21 days after which time all species were compared to controls and visually evaluated. Plant response ratings, summarized in Table D, are based on a scale of 0 to 100 where 0 is no effect and 100 is complete control. A dash (-) response means no test result.

soybean = assay: Test F postemergence; type: in vivo, Glycine max; conditions: scale 0 to 100
Excerpt: Seeds of plant species selected from corn (Zea mays), soybean (Glycine max), velvetleaf (Abutilon theophrasti), lambsquarters (Chenopodium album), wild poinsettia (Euphorbia heterophylla), pigweed, palmer (palmer pigweed, Amaranthus palmeri), common waterhemp (Amaranthus rudis), surinam grass (Brachiaria decumbens), large crabgrass (Digitaria sanguinalis), crabgrass, Brazil (Brazilian crabgrass, Digitaria horizontalis), fall panicum (Panicum dichotomiflorum), giant foxtail (Setaria faberii), green foxtail (Setaria viridis), goosegrass (Eleusine indica), johnsongrass (Sorghum halepense), common ragweed (Ambrosia elation), barnyardgrass (Echinochloa crus-galli), southern sandbur (Cenchrus echinatus), arrowleaf sida (Sida rhombifolia), Italian ryegrass (Lolium multiflorum), dayflower, VA (Virginia (VA) dayflower, Commelina virginica), field bindweed (Convolvulus arvensis), cocklebur (common cocklebur, Xanthium strumarium), morningglory (Ipomoea coccinea), nightshade (eastern black nightshade, Solanum ptycanthum), kochia (Kochia scoparia), yellow nutsedge (Cyperus esculentus), and hairy beggarticks (Bidens pilosa), were planted into a silt loam soil and treated preemergence with test chemicals formulated in a non-phytotoxic solvent mixture which included a surfactant.
At the same time, plants from these crop and weed species and also horseweed (Canada horseweed, Conyza canadensis), smartweed (ladysthumb smartweed, Polygonum persicaria), waterhemp_RES1, (ALS & Triazine resistant common waterhemp, Amaranthus rudis), and waterhemp_RES2, (ALS & HPPD resistant common waterhemp, Amaranthus rudis) were treated with postemergence applications of test chemicals formulated in the same manner. Plants ranged in height from 2 to 18 cm for postemergence treatments (1- to 4-leaf stage). Treated plants and controls were maintained in a greenhouse for 14 to 21 days, after which time all species were compared to controls and visually evaluated. Plant response ratings, summarized in Table F, are based on a scale of 0 to 100 where 0 is no effect and 100 is complete control. A dash (-) response means no test result.

fall panicum = assay: Test F postemergence; type: in vivo, Panicum dichotomiflorum; conditions: scale 0 to 100
In short: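 Pre- and postemergence applications used the same formulation, a non-phytotoxic solvent mixture including surfactant. Soil-applied treatment followed sowing into silt loam, whereas foliar treatment hit plants at the 1- to 4-leaf stage. Scores (0 = no effect, 100 = complete control) were assigned visually after 14–21 days.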

guineagrass = assay: Test E preemergence; type: in vivo, Panicum maximum; conditions: 21 days, scale 0 to 100
Excerpt: (§1) Seeds of plant species selected from bermudagrass (Cynodon dactylon), Surinam grass (Brachiaria decumbens), crabgrass, large (large crabgrass, Digitaria sanguinalis), crabgrass, naked (naked crabgrass, Digitaria nuda), foxtail, green (green foxtail, Setaria viridis), johnsongrass (Sorghum halepense), kochia (Kochia scoparia), morningglory (pitted morningglory, Ipomoea lacunosa), nutsedge, purple (purple nutsedge, Cyperus rotundus), ragweed (common ragweed, Ambrosia elation), mustard, black (black mustard, Brassica nigra), guineagrass (Panicum maximum), dallisgrass (Paspalum dilatatum), barnyardgrass (Echinochloa crus-galli), sandbur (southern sandbur, Cenchrus echinatus), sowthistle (common sowthistle, Sonchus oleraceous), ryegrass, Italian (Italian ryegrass, Lolium multiflorum), signalgrass (broadleaf signalgrass, Brachiaria platyphylla), dayflower, VA (Virginia (VA) dayflower, Commelina virginica), bluegrass (annual bluegrass, Poa annua), quackgrass (Elytrigia repens), mallow (common mallow, Malva sylvestris), buckwheat, wild (wild buckwheat, Polygonum convolvulus), leafy spurge (Euphorbia esula), common chickweed (Stellaria media), wild poinsettia (Euphorbia heterophylla), pigweed, palmer (palmer pigweed, Amaranthus palmeri), and pigweed (redroot pigweed, Amaranthus retroflexus) were planted into a blend of loam soil and sand and treated preemergence with test chemicals formulated in a non-phytotoxic solvent mixture which included a surfactant.
(§2) Treated plants and controls were maintained in a greenhouse for 21 days, after which time all species were compared to controls and visually evaluated. Plant response ratings, summarized in Table E, are based on a scale of 0 to 100 where 0 is no effect and 100 is complete control. A dash (-) response means no test result.

crabgrass, naked = assay: Test E preemergence; type: in vivo, Digitaria nuda; conditions: 21 days, scale 0 to 100
Excerpt: as §1, §2

morningglory = assay: Test E preemergence; type: in vivo, Ipomoea lacunosa; conditions: 21 days, scale 0 to 100
Excerpt: as §1, §2

signalgrass = assay: Test E preemergence; type: in vivo, Brachiaria platyphylla; conditions: 21 days, scale 0 to 100
Excerpt: as §1, §2

Compound: CCOc1cc(C(=O)NC(C)C)nn1Cc1ccnc(C(F)(F)F)c1 [Compound 188]
- Plant response rating, Chamomile (chamomile; 31 g ai/ha): 100
- Plant response rating, Chamomile (chamomile; 62 g ai/ha): 100
- Plant response rating, Chamomile (chamomile; 125 g ai/ha): 100
- Plant response rating, Chamomile (chamomile; 250 g ai/ha): 100
- Plant response rating, Soybean (soybean; Postemergence, 31 g ai/ha): 98
- Plant response rating, Soybean (soybean; Postemergence, 125 g ai/ha): 95
- Plant response rating, Soybean (soybean; Postemergence, 250 g ai/ha): 98
- Plant response rating, Soybean (soybean; postemergence, 62 g ai/ha): 95
- Plant response rating, Soybean (soybean; postemergence, 500 g ai/ha): 98
- Plant response rating, Fall Panicum (fall panicum; Postemergence, 31 g ai/ha): 20
- Plant response rating, Fall Panicum (fall panicum; Postemergence, 125 g ai/ha): 55
- Plant response rating, Fall Panicum (fall panicum; Postemergence, 250 g ai/ha): 75
- Plant response rating, Fall Panicum (fall panicum; postemergence, 62 g ai/ha): 20
- Plant response rating, Fall Panicum (fall panicum; postemergence, 500 g ai/ha): 90

Compound: CCOc1cc(C(=O)NC2CC2)nn1Cc1ccnc(C(F)(F)F)c1 [Compound 189]
- Plant response rating, Guineagrass (guineagrass; 4 g ai/ha): 30
- Plant response rating, Guineagrass (guineagrass; 8 g ai/ha): 75
- Plant response rating, Guineagrass (guineagrass; 16 g ai/ha): 100
- Plant response rating, Guineagrass (guineagrass; 31 g ai/ha): 100
- Plant response rating, Guineagrass (guineagrass; 62 g ai/ha): 100
- Plant response rating, Crabgrass, Naked (crabgrass, naked; 4 g ai/ha): 40
- Plant response rating, Crabgrass, Naked (crabgrass, naked; 8 g ai/ha): 95
- Plant response rating, Crabgrass, Naked (crabgrass, naked; 16 g ai/ha): 100
- Plant response rating, Crabgrass, Naked (crabgrass, naked; 31 g ai/ha): 100
- Plant response rating, Crabgrass, Naked (crabgrass, naked; 62 g ai/ha): 100
- Plant response rating, Chamomile (chamomile; 31 g ai/ha): 65
- Plant response rating, Chamomile (chamomile; 62 g ai/ha): 100
- Plant response rating, Chamomile (chamomile; 125 g ai/ha): 100
- Plant response rating, Chamomile (chamomile; 250 g ai/ha): 100
- Plant response rating, Morningglory (morningglory; 4 g ai/ha): 0
- Plant response rating, Morningglory (morningglory; 8 g ai/ha): 30
- Plant response rating, Morningglory (morningglory; 16 g ai/ha): 90
- Plant response rating, Morningglory (morningglory; 31 g ai/ha): 100
- Plant response rating, Morningglory (morningglory; 62 g ai/ha): 100
- Plant response rating, Signalgrass (signalgrass; 4 g ai/ha): 0
- Plant response rating, Signalgrass (signalgrass; 8 g ai/ha): 30
- Plant response rating, Signalgrass (signalgrass; 16 g ai/ha): 60
- Plant response rating, Signalgrass (signalgrass; 31 g ai/ha): 95
- Plant response rating, Signalgrass (signalgrass; 62 g ai/ha): 100
